Reference: PubChem BioAssay AID2060912 (Molecular Pharmacology Branch, DTP, NCI, 2025)

Tested on: HUVEC/MSC spheroids viability
Assay: Human HUVEC/MSC cell line growth inhibition [KRAS2];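 for viability, T/C: percent of DMSO vehicle control luminescence so 100% = untreated viability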
Settings: for IC50: curve of first compound; for viability, T/C: stronger effect = lower value; active = viability on the fitted dose curve at most 10% of control; inactive = the rest
Procedure, shortened: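 Growth/viability of tumour-free HUVEC–hMSC spheroids was measured after exposure to targeted small molecules and KRAS inhibitors, singly or in combination. Agents were diluted in half-log steps from Cmax-based top concentrations, capped at 10 microM without known Cmax.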

[1] = second compound 0.0316 µM, first compound 0.0316 µM
[2] = second compound 0.0316 µM, first compound 0.1 µM
[3] = second compound 0.1 µM, first compound 0.0316 µM
[4] = second compound 0.1 µM, first compound 0.1 µM
[5] = second compound 0.316 µM, first compound 0.0316 µM
[6] = second compound 0.316 µM, first compound 0.1 µM
[7] = second compound 1 µM, first compound 0.0316 µM
[8] = second compound 1 µM, first compound 0.1 µM
[9] = second compound 3.16 µM, first compound 0.0316 µM
[10] = second compound 3.16 µM, first compound 0.1 µM
[11] = second compound 10 µM, first compound 0.0316 µM
[12] = second compound 10 µM, first compound 0.1 µM

CC(C)NCC(C(=O)N1CCN(c2ncnc3c2C(C)CC3O)CC1)c1ccc(Cl)cc1 (centres undefined) + COc1cc2nc(C)nc(NC(C)c3cc(N)cc(C(F)(F)F)c3)c2cc1OC1CCOC1
inactive: viability, T/C [1] 92.4% | viability, T/C [2] 95.3% | viability, T/C (second compound 0.0316 µM, first compound 0.316 µM) 77.1% | viability, T/C (second compound 0.0316 µM, first compound 1 µM) 52% | viability, T/C (second compound 0.0316 µM, first compound 3.16 µM) 48% | viability, T/C (second compound 0.0316 µM, first compound 10 µM) 49.5% | viability, T/C [3] 77.5% | viability, T/C [4] 97.5% | viability, T/C (second compound 0.1 µM, first compound 0.316 µM) 77.5% | viability, T/C (second compound 0.1 µM, first compound 1 µM) 53.4% | viability, T/C (second compound 0.1 µM, first compound 3.16 µM) 50% | viability, T/C (second compound 0.1 µM, first compound 10 µM) 36.5% | viability, T/C [5] 80.1% | viability, T/C [6] 102% | viability, T/C (second compound 0.316 µM, first compound 0.316 µM) 81.2% | viability, T/C (second compound 0.316 µM, first compound 1 µM) 62.9% | viability, T/C (second compound 0.316 µM, first compound 3.16 µM) 42.8% | viability, T/C (second compound 0.316 µM, first compound 10 µM) 40.4% | viability, T/C [7] 85.1% | viability, T/C [8] 104% | viability, T/C (second compound 1 µM, first compound 0.316 µM) 88.5% | viability, T/C (second compound 1 µM, first compound 1 µM) 59.8% | viability, T/C (second compound 1 µM, first compound 3.16 µM) 46.8% | viability, T/C (second compound 1 µM, first compound 10 µM) 44.1% | viability, T/C [9] 74% | viability, T/C [10] 94.2% | viability, T/C (second compound 3.16 µM, first compound 0.316 µM) 76.9% | viability, T/C (second compound 3.16 µM, first compound 1 µM) 61.8% | viability, T/C (second compound 3.16 µM, first compound 3.16 µM) 52.9% | viability, T/C (second compound 3.16 µM, first compound 10 µM) 36.3% | viability, T/C [11] 58% | viability, T/C [12] 71.1% | viability, T/C (second compound 10 µM, first compound 0.316 µM) 75.8% | viability, T/C (second compound 10 µM, first compound 1 µM) 49.9% | viability, T/C (second compound 10 µM, first compound 3.16 µM) 42.5% | viability, T/C (second compound 10 µM, first compound 10 µM) 33.4%
1.97 µM: IC50 (second compound 0.0316 µM)
2.1 µM: IC50 (second compound 0.316 µM)
1.58 µM: IC50 (second compound 0.1 µM)
2.24 µM: IC50 (second compound 1 µM)
0.996 µM: IC50 (second compound 10 µM)
3.01 µM: IC50 (second compound 3.16 µM)

CC(C)n1nc(-c2ccc3oc(N)nc3c2)c2c(N)ncnc21 + COc1cc2nc(C)nc(NC(C)c3cc(N)cc(C(F)(F)F)c3)c2cc1OC1CCOC1
0.00516 µM: IC50 (second compound 10 µM)
0.00294 µM: IC50 (second compound 0.316 µM)
0.00301 µM: IC50 (second compound 0.0316 µM)
0.00681 µM: IC50 (second compound 0.1 µM)
0.00249 µM: IC50 (second compound 3.16 µM)
inactive: viability, T/C (second compound 0.0316 µM, first compound 0.000316 µM) 78.9% | viability, T/C (second compound 0.0316 µM, first compound 0.001 µM) 80.2% | viability, T/C (second compound 0.0316 µM, first compound 0.00316 µM) 48.5% | viability, T/C (second compound 0.0316 µM, first compound 0.01 µM) 53% | viability, T/C [1] 49.2% | viability, T/C [2] 44% | viability, T/C (second compound 0.1 µM, first compound 0.000316 µM) 82.9% | viability, T/C (second compound 0.1 µM, first compound 0.001 µM) 61.5% | viability, T/C (second compound 0.1 µM, first compound 0.00316 µM) 55.5% | viability, T/C (second compound 0.1 µM, first compound 0.01 µM) 46.5% | viability, T/C [3] 50.5% | viability, T/C [4] 39.6% | viability, T/C (second compound 0.316 µM, first compound 0.000316 µM) 79.8% | viability, T/C (second compound 0.316 µM, first compound 0.001 µM) 76.2% | viability, T/C (second compound 0.316 µM, first compound 0.00316 µM) 48.2% | viability, T/C (second compound 0.316 µM, first compound 0.01 µM) 41.1% | viability, T/C [5] 46.1% | viability, T/C [6] 39% | viability, T/C (second compound 1 µM, first compound 0.000316 µM) 76% | viability, T/C (second compound 1 µM, first compound 0.001 µM) 67.2% | viability, T/C (second compound 1 µM, first compound 0.00316 µM) 49.3% | viability, T/C (second compound 1 µM, first compound 0.01 µM) 34.5% | viability, T/C [7] 51% | viability, T/C [8] 37.7% | viability, T/C (second compound 3.16 µM, first compound 0.000316 µM) 77% | viability, T/C (second compound 3.16 µM, first compound 0.001 µM) 71.8% | viability, T/C (second compound 3.16 µM, first compound 0.00316 µM) 44.2% | viability, T/C (second compound 3.16 µM, first compound 0.01 µM) 41.7% | viability, T/C [9] 41.8% | viability, T/C [10] 43.1% | viability, T/C (second compound 10 µM, first compound 0.000316 µM) 62.7% | viability, T/C (second compound 10 µM, first compound 0.001 µM) 61% | viability, T/C (second compound 10 µM, first compound 0.00316 µM) 59.3% | viability, T/C (second compound 10 µM, first compound 0.01 µM) 33.7% | viability, T/C [11] 41.2% | viability, T/C [12] 37.4%
0.0028 µM: IC50 (second compound 1 µM)
